In patent publication US9630949B2, “Oxoazetidine derivatives, process for the preparation thereof and use thereof in human medicine and in cosmetics” (GALDERMA RESEARCH & DEVELOPMENT, priority 2008, dated 2017) one finds EC50 data, which are given here for 24 molecules.

Where a name gives a salt, the structure may show the parent alone.

What is called EC50 is the concentration giving half of the maximal effect.

For assay [1], the target named is hMC1R (Homo sapiens (Human), UniProt Q01726). Description: Transactivation test: melanocortin receptors (pCRE-Luc luciferase reporter), hMC1R. The settings on record: HEK293 transfected with pCRE-Luc and hMC1R; products tested alone (agonist), 6 h incubation; % activity vs NDP-MSH 10 nM; IA: inactive. The format is cell-based. The procedure: (§1) Transactivation Test: Melanocortin Receptors
(§2) HEK293 lines are transfected with the pCRE-Luc and hMC1R, hMC3R, hMC4R or hMC5R vectors. The cells are cultured at 37° C., 5% CO2, in DMEM medium supplemented with 10% of foetal calf serum.
(§3) In the presence of an activator (agonist), the melanocortin receptor will activate the cAMP pathway which, via the CRE-Luc vector, will result in the synthesis of luciferase. After the addition of a lysis buffer containing a luminescent substrate for luciferase, it will be possible to measure the luminescence proportional to the degree of activation or of inhibition of the receptor.
(§4) The products are solubilized at 10 mM in DMSO. They are tested in the form of dose-response at a final DMSO concentration of 0.1%. The range comprising 10 points and one zero begins at 10 μM with 4-fold dilutions. For testing agonists, the products are tested alone. For determining the behaviour of antagonists, the products of interest are tested in the presence of 1 nM NDP-MSH (reference agonist). The cells are seeded at a rate of 5000 cells per well (384 well plate) in serum-free DMEM medium, and incubated overnight at 37° C., 5% CO2.
(§5) The products and the reference ligand (NDP-MSH) are added the following day, and the plates are again incubated for 6 h at 37° C., 5% CO2. After the addition of lysis buffer containing luciferin, the plates are read on a Top-Count instrument. The results are standardized as % activity using the 100% (cells+NDP-MSH at 10 nM) and 0% (cells alone) controls. An EC50 is calculated for each product using the XLFit software. The results are given in nM.
(In a reporter assay the amount or activity of a reporter protein is the signal.)

Assay [2] deals with hMC4R (Homo sapiens (Human), UniProt P32245). As to the kind of experiment: Transactivation test: melanocortin receptors (pCRE-Luc luciferase reporter), hMC4R. The format is cell-based. The settings on record: HEK293 transfected with pCRE-Luc and hMC4R; products tested alone (agonist), 6 h incubation; % activity vs NDP-MSH 10 nM; IA: inactive. The method, then: as §1, §2, §3, §4, §5
Chain of hMC4R (P32245 whole entry): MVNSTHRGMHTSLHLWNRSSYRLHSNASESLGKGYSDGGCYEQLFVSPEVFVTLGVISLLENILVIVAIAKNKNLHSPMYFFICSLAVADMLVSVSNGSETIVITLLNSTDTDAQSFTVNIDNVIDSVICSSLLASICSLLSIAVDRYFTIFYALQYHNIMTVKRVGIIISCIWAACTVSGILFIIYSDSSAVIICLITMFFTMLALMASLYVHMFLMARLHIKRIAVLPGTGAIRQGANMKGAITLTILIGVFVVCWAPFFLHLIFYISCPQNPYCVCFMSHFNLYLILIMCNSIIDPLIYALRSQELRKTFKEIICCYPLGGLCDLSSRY

Chain of hMC1R (Q01726 whole entry): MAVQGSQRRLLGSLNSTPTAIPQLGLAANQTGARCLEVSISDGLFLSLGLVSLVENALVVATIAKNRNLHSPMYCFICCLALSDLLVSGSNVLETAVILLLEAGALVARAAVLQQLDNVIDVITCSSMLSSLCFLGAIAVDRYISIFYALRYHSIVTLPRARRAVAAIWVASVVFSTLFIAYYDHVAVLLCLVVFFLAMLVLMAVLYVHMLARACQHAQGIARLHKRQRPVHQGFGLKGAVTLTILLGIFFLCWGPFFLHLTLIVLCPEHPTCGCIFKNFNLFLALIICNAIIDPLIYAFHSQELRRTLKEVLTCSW

In turn, `CCCC(=O)OC1(c2ccccc2)CN(C(=O)[C@H](Cc2ccc(OC)cc2)NC(=O)[C@H](Cc2c[nH]cn2)NC(=O)c2ccccc2)C1` [Compound 1, 1-[(S)-2-[(S)-2-benzoylamino-3-(1H-imidazol-4-yl)propionylamino]-3-(4-methoxyphenyl)propionyl]-3-phenylazetidin-3-yl ester of butyric acid] registered an EC50 in assay [1] of 0.5 µM.
For the molecule `CCCCOC1(c2ccccc2C)CN(C(=O)[C@H](Cc2ccc(OC)cc2)NC(=O)[C@H](Cc2c[nH]cn2)NC(=O)c2ccccc2)C1` [Compound 2, N-[(S)-1-[(S)-2-(3-butoxy-3-o-tolylazetidin-1-yl)-1-(4-methoxybenzyl)-2-oxoethylcarbamoyl]-2-(1H-imidazol-4-yl)ethyl]benzamide], the EC50 in assay [1] worked out at 0.03 µM; in assay [2], 8 µM.
Consider `CCCCOC1(c2ccccc2)CN(C(=O)[C@H](Cc2ccc(OC)cc2)NC(=O)[C@H](Cc2c[nH]cn2)NC(=O)c2ccccc2)C1` [Compound 3, N-[(S)-1-[(S)-2-(3-butoxy-3-phenylazetidin-1-yl)-1-(4-methoxybenzyl)-2-oxoethylcarbamoyl]-2-(1H-imidazol-4-yl)ethyl]benzamide], for which the EC50 in assay [1] was 0.06 µM; in assay [2], 4 µM.
On to `COc1ccc(C[C@H](NC(=O)[C@H](Cc2c[nH]cn2)NC(=O)c2ccccc2)C(=O)N2CC(O)(c3ccccc3C)C2)cc1` [Compound 4, N-[(S)-1-[(S)-2-(3-hydroxy-3-o-tolylazetidin-1-yl)-1-(4-methoxybenzyl)-2-oxoethylcarbamoyl]-2-(1H-imidazol-4-yl)ethyl]benzamide], for which the EC50 in assay [1] amounted to 0.25 µM; in assay [2], 4 µM.
In the case of `COc1ccc(C[C@H](NC(=O)[C@H](Cc2c[nH]cn2)NC(=O)c2ccccc2)C(=O)N2CC(OC(C)=O)(c3ccccc3C)C2)cc1` [Compound 5, 1-[(S)-2-[(S)-2-benzoylamino-3-(1H-imidazol-4-yl)propionylamino]-3-(4-methoxyphenyl)propionyl]-3-o-tolylazetidin-3-yl acetate], the EC50 turned out to be 4 µM in assay [1] and 8 µM in assay [2].
The corresponding values for `CCCC(=O)OC1(c2ccc(F)cc2)CN(C(=O)[C@H](Cc2ccc(OC)cc2)NC(=O)[C@H](Cc2c[nH]cn2)NC(=O)c2ccccc2)C1` [Compound 6, 1-[(S)-2-[(S)-2-benzoylamino-3-(1H-imidazol-4-yl)propionylamino]-3-(4-methoxyphenyl)propionyl]-3-(4-fluorophenyl)azetidin-3-yl ester of butyric acid] are 2 µM and 8 µM.
In the same order, the values of `COc1ccc(C[C@H](NC(=O)[C@H](Cc2c[nH]cn2)NC(=O)c2ccccc2)C(=O)N2CC(O)(C3CCCCC3)C2)cc1` [Compound 7, N-[(S)-1-[(S)-2-(3-cyclohexyl-3-hydroxyazetidin-1-yl)-1-(4-methoxybenzyl)-2-oxoethylcarbamoyl]-2-(1H-imidazol-4-yl)ethyl]benzamide] are 0.5 µM and 4 µM.
On to `CCCCOC1(c2ccc(F)cc2)CN(C(=O)[C@H](Cc2ccc(OC)cc2)NC(=O)[C@H](Cc2c[nH]cn2)NC(=O)c2ccccc2)C1` [Compound 8, N-[(S)-1-[(S)-2-[3-butoxy-3-(4-fluorophenyl)azetidin-1-yl]-1-(4-methoxybenzyl)-2-oxoethylcarbamoyl]-2-(1H-imidazol-4-yl)ethyl]benzamide], for which the EC50 in assay [1] was 0.12 µM; in assay [2], 4 µM.
On to `CCCCOC1(c2cccc(F)c2)CN(C(=O)[C@H](Cc2ccc(OC)cc2)NC(=O)[C@H](Cc2c[nH]cn2)NC(=O)c2ccccc2)C1` [Compound 9, N-[(S)-1-[(S)-2-[3-butoxy-3-(3-fluorophenyl)azetidin-1-yl]-1-(4-methoxybenzyl)-2-oxoethylcarbamoyl]-2-(1H-imidazol-4-yl)ethyl]benzamide], for which the EC50 in assay [1] stood at 0.12 µM; in assay [2], 1 µM.
On to `COc1ccc(C[C@H](NC(=O)CCc2c[nH]cn2)C(=O)N2CC(O)(C3CCCCC3)C2)cc1` [Compound 10, N-[(S)-2-(3-cyclohexyl-3-hydroxyazetidin-1-yl)-1-(4-methoxybenzyl)-2-oxoethyl]-3-(1H-imidazol-4-yl)propionamide], for which the EC50 in assay [1] is 8 µM.
For `COc1ccc(C[C@H](NC(=O)CCc2c[nH]cn2)C(=O)N2CC(O)(c3ccccc3C)C2)cc1` [Compound 11, N-[(S)-2-(3-hydroxy-3-o-tolylazetidin-1-yl)-1-(4-methoxybenzyl)-2-oxoethyl]-3-(1H-imidazol-4-yl)propionamide], the EC50 in assay [1] stood at 4 µM; in assay [2], 8 µM.
Turning to `O=C(CCc1c[nH]cn1)N[C@H](Cc1ccc(Cl)c(Cl)c1)C(=O)N1CC(O)(c2ccccc2)C1` [Compound 12, N-[(R)-1-(3,4-dichlorobenzyl)-2-(3-hydroxy-3-phenylazetidin-1-yl)-2-oxoethyl]-3-(1H-imidazol-4-yl)propionamide], it took 8 µM to reach a half-maximal effect in assay [1] (EC50).
Turning to `CCOC1(c2ccccc2C)CN(C(=O)[C@H](Cc2ccc(OC)cc2)NC(=O)CCc2c[nH]cn2)C1` [Compound 13, N-[(S)-2-(3-ethoxy-3-o-tolylazetidin-1-yl)-1-(4-methoxybenzyl)-2-oxoethyl]-3-(1H-imidazol-4-yl)propionamide], the EC50 in assay [1] is 2 µM; in assay [2], 15 µM.
Consider `CCCOC1(c2ccccc2C)CN(C(=O)[C@H](Cc2ccc(OC)cc2)NC(=O)CCc2c[nH]cn2)C1` [Compound 21, N-[(S)-1-(4-methoxybenzyl)-2-oxo-2-(3-propoxy-3-o-tolylazetidin-1-yl)ethyl]-3-(1H-imidazol-4-yl)propionamide], for which the EC50 in assay [1] turned out to be 4 µM.
Consider `COc1ccc(C[C@@H](NC(=O)CCc2c[nH]cn2)C(=O)N2CC(O)(c3ccccc3C)C2)cc1` [Compound 29, N-[(R)-2-(3-hydroxy-3-o-tolylazetidin-1-yl)-1-(4-methoxybenzyl)-2-oxoethyl]-3-(1H-imidazol-4-yl)propionamide], for which, in assay [1], the EC50 was 1 µM.
`CCCCCC1(c2ccc(F)cc2)CN(C(=O)[C@@H](Cc2ccc(OC)cc2)NC(=O)CCc2c[nH]cn2)C1` [Compound 38, N-[(R)-2-[3-(4-fluorophenyl)-3-pentylazetidin-1-yl]-1-(4-methoxybenzyl)-2-oxoethyl]-3-(1H-imidazol-4-yl)propionamide]: it took 0.25 µM to reach a half-maximal effect in assay [1] (EC50).
Regarding `CCCCCC1(c2ccccc2F)CN(C(=O)[C@@H](Cc2ccc(OC)cc2)NC(=O)CCc2c[nH]cn2)C1` [Compound 43, N-[(R)-2-[3-(2-fluorophenyl)-3-pentylazetidin-1-yl]-1-(4-methoxybenzyl)-2-oxoethyl]-3-(1H-imidazol-4-yl)propionamide], a half-maximal response in assay [1] (EC50) required 0.03 µM.
Still for that read-out and setting: to `CCCCCC1(c2ccccc2Cl)CN(C(=O)[C@@H](Cc2ccc(OC)cc2)NC(=O)CCc2c[nH]cn2)C1` [Compound 44, N-[(R)-2-[3-(2-chlorophenyl)-3-pentylazetidin-1-yl]-1-(4-methoxybenzyl)-2-oxoethyl]-3-(1H-imidazol-4-yl)propionamide] belongs 0.03 µM; to `CCCCCC1(c2ccccc2)CN(C(=O)[C@@H](Cc2ccc(C(F)(F)F)cc2)NC(=O)CCc2c[nH]cn2)C1` [Compound 51, N-[(R)-2-oxo-2-(3-pentyl-3-phenylazetidin-1-yl)-1-(4-trifluoromethylbenzyl)ethyl]-3-(1H-imidazol-4-yl)propionamide], 1 µM; to `CCCCCC1(c2ccc(Cl)c(Cl)c2)CN(C(=O)[C@@H](Cc2ccc(OC)cc2)NC(=O)CCc2c[nH]cn2)C1` [Compound 54, N-[(R)-2-[3-(3,4-dichlorophenyl)-3-pentylazetidin-1-yl]-1-(4-methoxybenzyl)-2-oxoethyl]-3-(1H-imidazol-4-yl)propionamide], 0.25 µM.
In assay [2], `CCCCOC1(c2ccccc2C)CN(C(=O)C(Cc2ccc(OC)cc2)NC(=O)CC(CCC)c2c[nH]cn2)C1` (stereo not shown) [Compound 62, N-[2-(3-butoxy-3-o-tolylazetidin-1-yl)-1-(4-methoxybenzyl)-2-oxoethyl]-3-(1H-imidazol-4-yl)hexyramide] gave an EC50 of 0.5 µM.
The molecule `CCCCOC1(c2ccccc2C)CN(C(=O)C(Cc2ccc(Cl)cc2Cl)NC(=O)CC(CCC)c2c[nH]cn2)C1` (stereo not shown) [Compound 65, N-[2-(3-butoxy-3-o-tolylazetidin-1-yl)-1-(2,4-dichlorobenzyl)-2-oxoethyl]-3-(1H-imidazol-4-yl)hexyramide] had an EC50 in assay [2] of 0.1 µM.
In turn, `CCCCOC1(c2ccccc2C)CN(C(=O)C(Cc2ccc(OC)cc2O)NC(=O)CCc2cnc[nH]2)C1` (stereo not shown) [Compound 70, N-[2-(3-Butoxy-3-o-tolylazetidin-1-yl)-1-(2-hydroxy-4-methoxybenzyl)-2-oxoethyl]-3-(3H-imidazol-4-yl)propionamide trifluoroacetate] came in with an EC50 in assay [1] of 4 µM.
The same measure, in the same setting: to `CCCCOC1(c2ccccc2C)CN(C(=O)[C@@H](Cc2ccc(O)cc2)NC(=O)CCc2cnc[nH]2)C1` [Compound 72, N-[(R)-2-(3-Butoxy-3-o-tolylazetidin-1-yl)-1-(4-hydroxybenzyl)-2-oxoethyl]-3-(3H-imidazol-4-yl)propionamide] belongs 2 µM.
